Laboratory results reported in publication PMC5053523, “In Vitro Antibacterial Activity of Rhodanine Derivatives against Pathogenic Clinical Isolates” (PLoS ONE, 2016).
Like-named read-outs stand apart in the source and are kept apart here.

Key:
Klebsiella pneumoniae = assay: MIC with/without PMBN, Klebsiella pneumoniae; format: cell-based
How it was run: (§1)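 Rhodanines and control antibiotics are tested for MIC against Gram-negative bacteria while a sub-inhibitory level of colistin or PMBN is present. A strain of E. coli lacking the AcrAB efflux pump (SM1411ΔacrAB) serves as an additional test organism.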

Escherichia coli O157:H7 = assay: MIC with/without sub-MIC colistin, Escherichia coli O157:H7; format: cell-based
How it was run: as §1

[1] = system: vancomycin resistant enterococci (VRE) E. faecium; assay: Broth microdilution MIC/MBC, VRE E. faecium; format: cell-based; conditions: for MIC: read-out: MIC
[2] = system: established methicillin-resistant S. epidermidis biofilm (ATCC 35984, NRS 101); assay: Microtiter dish biofilm eradication assay (crystal violet); format: cell-based, Staphylococcus epidermidis; conditions: high concentrations (up to 8 X MIC), 24 h
Description: We used S. epidermidis ATCC 35984 (NRS 101), a high-slime producer isolated in septicemic patients, with colonized intravascular catheters from Tennessee, USA [10]. This strain is a multi-drug resistant strain, showing resistance to methicillin, erythromycin, kanamycin, gentamicin, clindamycin and trimethoprim. Briefly, an overnight culture of biofilm—producing MRSE was diluted 1:100 in a fresh medium containing 1% glucose in a 96-well tissue-culture treated plate. Bacteria were incubated at 37°C for 24 h to permit the formation of an adherent biofilm. The medium was removed and the biofilm was washed with PBS. Antibacterial drugs (vancomycin and linezolid) and rhodanine 2, at indicated concentration, were added and incubated again at 37°C for 24 h. Plates were washed again and biofilms were stained with 0.1% (wt/vol) crystal violet. Plates were washed with PBS, air-dried and biofilm mass was dissolved using 95% ethanol. The intensity of crystal violet was measured using a micro plate reader (SpectraMax i3x; Molecular Devices, Sunnyvale, CA, USA). Data are presented as the percent biofilm mass reduction in treated groups in relation to untreated wells.

Acinetobacter baumannii = assay: MIC with/without PMBN, Acinetobacter baumannii; format: cell-based
How it was run: as §1

[3] = system: vancomycin resistant enterococci (VRE) E. faecalis; assay: Broth microdilution MIC/MBC, VRE E. faecalis; format: cell-based; conditions: for MIC: read-out: MIC
[4] = E. faecium HM 968 Strain ERV102
[5] = E. faecium NR31914 Strain E0120
[6] = E. faecium Patient #1–1 NR-31903
[7] = E. faecalis NR31972 Strain SF 28073

CC(=O)NC[C@H]1CN(c2ccc(N3CCOCC3)c(F)c2)C(=O)O1 [Linezolid, linezolid, reference compound]
4 µM: MIC (Escherichia coli O157:H7; Escherichia coli O157:H7 ATCC 700728, colistin (+) […], read-out: MIC)
> 64 µM: MBC ([1]; E. faecium E417 HM-965) | MBC ([1]; E. faecium E1071 NR-28978) | MBC [1, 4] | MBC [1, 5] | MBC [1, 6] | MBC ([3]; E. faecalis ERV103 HM-934) | MBC ([3]; E. faecalis TX0104 HM-201)
32 µM: MBC [3, 7] | MBC ([3]; E. faecalis R712 HM-335)
> 128 µM: MIC (Klebsiella pneumoniae; Klebsiella pneumoniae, BAA1706) | MIC (Klebsiella pneumoniae; Klebsiella pneumoniae, BAA2146) | MIC (Escherichia coli O157:H7; Escherichia coli, ATCC35150) | MIC (Escherichia coli O157:H7; Escherichia coli, ATCC700728) | MIC (Acinetobacter baumannii; Acinetobacter baumannii, ATCCBAA747) | MIC (Acinetobacter baumannii; Acinetobacter baumannii, ATCCBAA19606)
not significantly decreased: biofilm mass reduction [2]
16 µM: MIC [1, 6]
>64 µM: MIC (Klebsiella pneumoniae; Klebsiella pneumoniae ATCC BAA 1706, PMBN (+) 4 μg/mL) | MIC (Klebsiella pneumoniae; Klebsiella pneumoniae ATCC BAA 2146, PMBN (+) 4 μg/mL) | MIC (Acinetobacter baumannii; Acinetobacter baumannii ATCC BAA747, PMBN (+) 4 μg/mL, read-out: MIC) | MIC (Acinetobacter baumannii; Acinetobacter baumannii ATCC BAA19606, PMBN (+) 4 μg/mL, read-out: MIC)
2 µM: MIC ([1]; E. faecium E417 HM-965) | MIC ([1]; E. faecium E1071 NR-28978) | MIC [1, 4] | MIC [1, 5] | MIC ([3]; E. faecalis ERV103 HM-934) | MIC [3, 7] | MIC ([3]; E. faecalis R712 HM-335) | MIC ([3]; E. faecalis S613 HM-334) | MIC ([3]; E. faecalis TX0104 HM-201)
≤0.5 µM: MIC (Escherichia coli O157:H7; Escherichia coli O157:H7 ATCC 35150, colistin (+) […], read-out: MIC)
64 µM: MBC ([3]; E. faecalis S613 HM-334)
